According to patent US8592368B2, “JAK/STAT inhibitors and MAPK/ERK inhibitors for RSV infection” (University of South Florida, priority 2003, dated 2013):

Columns and labels:
STAT-1α = STAT-1α phosphorylation in RSV-infected A549 cells (immunoblot); assay type: cell-based, human; conditions: for RSV-induced STAT-1α phosphorylation: A549 cells pre-incubated with AG490 (50 μM) or PD98059 for 4 hours, then RSV, densitometry of Western blot
Method: (§1) FIGS. 4A-4F that blocking STAT-1α attenuates RSV gene transcription and infection. A549 cells were treated with 50 µM AG490 for 4 hours before being exposed to supRSV for 30 minutes. Lysates were separated by SDS-PAGE and immunoblotted using antibodies to phospho-STAT-1α and STAT-1α. The total number of syncytia-forming plaques (PFU/ml) was counted 72 hours post-infection. Each value represents means SEM (N=3, *p<0.001). Cell proliferation was determined by viable cell counts. A549 cells were cotransfected with the pRL-TK plasmid and either the WT (pRc/CMV STAT-1α) (lanes 1 and 2) or DN mutant (pRc/CMV STAT-1α) (Y701F) (lanes 3 and 4) and then exposed to supRSV for 30 minutes. Lysates were separated by SDS-PAGE and immunoblotted for phospho-STAT-1α or STAT-1α. A549 cells were transfected with WT or DN-STAT-1α constructs and 24 hours later exposed to RSV for 30 minutes. RSV replication was measured by RT-PCR analysis of N protein gene expression. The percentage of infected cells was determined using immunofluorescence in cells transfected with WT or DN-STAT-1α. The values are means SEM (*p<0.001).
FIGS. 8A-8D show the effects of inhibitors of phosphorylation of STAT-1α and ERK-1/2. In FIG. 8A, AG490- or PD98059-treated A549 cells were infected with RSV for 15 minutes. Total proteins were Western-blotted using specific anti-phospho antibodies to STAT-1α, ERK-1/2 or IκBα. Lane 1: mock-infected, lanes 2-4: RSV infected for 30 minutes, lane 3: cells treated with 50 μM of AG490 prior to RSV infection, lane 4: cells treated with 25 μM of PD98059 for 4 hours prior RSV infection. In FIG. 8B, the bands were quantified by densitometry and the relative intensity of phosphoSTAT-1α, phospho-ERK and phospho-IκBα with respect to uninfected control (lane 1) was determined. The experiment was repeated twice and the result of a representative experiment is shown. […] A549 cells were co-transfected with RL-TK plasmid and either the WT (pRc/CMV-STAT-1α) (lanes 3 and 4) or DN mutant (pRc/CMV-STAT-1α) (Y701F) (lanes 5 and 6) and were infected with RSV for 30 minutes after 24 hours of transfection. […] In FIG. 8D, the bands were quantified by densitometry and the relative intensity of phospho-ERK and ERK was determined in each band. […]
Immunoblotting was carried out as previously described (Behera, A. K. et al. Biochem. Biophys. Res. Commun., 1998, 251(3): 704-709). After transfer, membranes were blocked with 5% non-fat dried milk, incubated with antibody to a specific STAT protein or to the corresponding phospho-STAT protein (NEW ENGLAND BIOLABS, Beverly, Mass.), secondary antibody conjugated to horseradish peroxidase was added, and immunocomplexes detected by enhanced chemiluminescence (NEW ENGLAND BIOLABS, Beverly, Mass.). […]

ERK-1/2 = ERK-1/2 phosphorylation in RSV-infected A549 cells (immunoblot); assay type: cell-based, human
Method: Proteins were isolated from untreated cells (lane 1) or cells infected with RSV for 30 minutes (lanes 2-6) after pretreatment of cells for 30 minutes with heparinase (lane 3) or heparin (lane 5), or infected with virus pretreated with heparinase (lane 4) or heparin (lane 6) prior to addition to the cells. Proteins were separated by SDS-PAGE, blotted and probed with anti-phospho ERK-1/2 and then re-probed with anti-ERK-1/2.
FIGS. 8A-8D show the effects of inhibitors of phosphorylation of STAT-1α and ERK-1/2. In FIG. 8A, AG490- or PD98059-treated A549 cells were infected with RSV for 15 minutes. Total proteins were Western-blotted using specific anti-phospho antibodies to STAT-1α, ERK-1/2 or IκBα. Lane 1: mock-infected, lanes 2-4: RSV infected for 30 minutes, lane 3: cells treated with 50 μM of AG490 prior to RSV infection, lane 4: cells treated with 25 μM of PD98059 for 4 hours prior RSV infection. In FIG. 8B, the bands were quantified by densitometry and the relative intensity of phosphoSTAT-1α, phospho-ERK and phospho-IκBα with respect to uninfected control (lane 1) was determined. The experiment was repeated twice and the result of a representative experiment is shown. […] A549 cells were co-transfected with RL-TK plasmid and either the WT (pRc/CMV-STAT-1α) (lanes 3 and 4) or DN mutant (pRc/CMV-STAT-1α) (Y701F) (lanes 5 and 6) and were infected with RSV for 30 minutes after 24 hours of transfection. Total proteins were extracted and Western-blotted using antibodies to phospho-STAT-1α, phospho-ERK-1/2 and re-probed with antibodies to STAT-1α or ERK-1/2. In FIG. 8D, the bands were quantified by densitometry and the relative intensity of phospho-ERK and ERK was determined in each band. […]
Whole cell protein extracts were prepared by lysing cells in 50 mM HEPES, 150 mM NaCl, 1 mM EDTA, 1 mM EGTA, 10% glycerol, 0.5% NP-40, 0.1 mM phenylmethylsulfonyl fluoride, 2.5 μg/ml leupeptin, 0.5 mM NaF, and 0.1 mM sodium vanadate. […] The antibody reactions were detected by enhanced chemiluminescence using LUMIGLO (CELL SIGNALLING TECHNOLOGY). […]

RSV [1] = conditions: treatment of cells; Feldman et al. 1999; cited from earlier work
rgRSV = rgRSV infection of primary NHBE cells (fluorescent images); assay type: cell-based, respiratory syncytial virus; conditions: AG490 50 μM or PD98059 80 μM 2 hours before rgRSV, images after 16 hours
Method: FIGS. 10A-10F show the effects of STAT and ERK-1/2 inhibitors on RSV infection of NHBE cells. NHBE cells were treated with either AG490 (50 μM) (FIGS. 10C and 10D) or PD98059 (80 μM) (FIGS. 10E and 10F) for 2 hours. DMSO was used as a mock control (FIGS. 10A and 10B). After inhibitor removal, cells were infected with rgRSV for 2 hours. Then, rgRSV was removed and growth medium with inhibitors was added to the cells for 16 hours before fluorescent images (DMSO, FIG. 10B; AG490, FIG. 10D; PD98059, FIG. 10F) as well as light transmission images (DMSO, FIG. 10A; AG490, FIG. 10C; PD98059, FIG. 10E) were taken.
RSV A2 strain was obtained from the American Type Culture Collection (ATCC, Rockville, Md., USA). In some experiments, rgRSV (an engineered RSV expressing enhanced green fluorescent protein) was used. A549 cell line, representing type II alveolar epithelial cells, was obtained from the ATCC. The cells were grown at 37° C. in 5% CO2 in RPMI medium, supplemented with 10% fetal bovine serum. Normal human bronchial epithelial cells (NHBE) were obtained from CAMBREX (Walkersville, Md., USA) and grown in serum-free bronchial epithelium growth medium supplemented as indicated by the manufacturer. NHBE at passage 2 and 3 was used for the experiments.
A549 cells were incubated with AG490 (50 μM) or PD98059 (80 μM) for 4 hours at 37° C. and then infected with RSV. […]

RSV [2] = experiment: RSV plaque assay (syncytia-forming plaques, HEp-2 cell-based); design: species or system respiratory syncytial virus; conditions: A549 cells, AG490 pretreatment, plaques counted 72 hours post-infection
Method: as §1, with “(*p<0.001). […]” for “(*p<0.001).”

IκBα = IκBα phosphorylation in RSV-infected A549 cells (immunoblot); assay type: cell-based, human; conditions: A549 cells pre-incubated with AG490 (50 μM) or PD98059 for 4 hours, then RSV
Method: FIGS. 8A-8D show the effects of inhibitors of phosphorylation of STAT-1α and ERK-1/2. In FIG. 8A, AG490- or PD98059-treated A549 cells were infected with RSV for 15 minutes. Total proteins were Western-blotted using specific anti-phospho antibodies to STAT-1α, ERK-1/2 or IκBα. Lane 1: mock-infected, lanes 2-4: RSV infected for 30 minutes, lane 3: cells treated with 50 μM of AG490 prior to RSV infection, lane 4: cells treated with 25 μM of PD98059 for 4 hours prior RSV infection. In FIG. 8B, the bands were quantified by densitometry and the relative intensity of phosphoSTAT-1α, phospho-ERK and phospho-IκBα with respect to uninfected control (lane 1) was determined. The experiment was repeated twice and the result of a representative experiment is shown. […] In FIG. 8D, the bands were quantified by densitometry and the relative intensity of phospho-ERK and ERK was determined in each band. […]
Whole cell protein extracts were prepared by lysing cells in 50 mM HEPES, 150 mM NaCl, 1 mM EDTA, 1 mM EGTA, 10% glycerol, 0.5% NP-40, 0.1 mM phenylmethylsulfonyl fluoride, 2.5 μg/ml leupeptin, 0.5 mM NaF, and 0.1 mM sodium vanadate. […] The antibody reactions were detected by enhanced chemiluminescence using LUMIGLO (CELL SIGNALLING TECHNOLOGY).

A549 cells = assay type: cell-based, human
Method: as §1
To rule out the possibility that this effect on viral replication is due to diminished cell proliferation, viable cells were enumerated at 12, 24, 48, and 72 hours after treatment with inhibitors.

RSV [3] = experiment: Immunofluorescence count of RSV-infected A549 cells; assay type: cell-based, respiratory syncytial virus; conditions: A549 cells treated with PD98059, 24 hours of RSV infection, vs control
Method: as §1, with “The values are means SEM (*p<0.001).” left out
In FIG. 9A, PD98059- or DMSO-treated A549 cells were infected with RSV. […] The RSV titers were determined using a HEP-2 cell-based plaque assay as described. […] Twenty-four hours after transfection, A549 cells were infected with RSV for 90 minutes and 24 hours after the % of infected cells was determined with FITC-RSV antibody. […]

HIV-1 = conditions: Yang and Gabuzda 1999; cited from earlier work

Row | Compound | RSV-induced activation of STAT-1 (STAT-1α; A549 cells or RSV pretreated with heparin 1000 U/ml or heparinase 10 U/ml, RSV 30 minutes) | RSV-induced activation of ERK-1/2 (ERK-1/2; A549 cells, heparin pretreatment, RSV 30 minutes) | ERK-1/2 phosphorylation induced by pretreated RSV (ERK-1/2; RSV pretreated with heparin or heparinase before addition to A549 cells) | RSV infection (RSV [1]) | number of infected cells (rgRSV) | RSV-induced STAT-1α phosphorylation (STAT-1α) | phosphorylation of STAT-1α (STAT-1α; A549 cells preincubated with AG490 for 4 hours, then supRSV 30 minutes, vs untreated controls) | ERK activation (phospho-ERK-1/2) (ERK-1/2; A549 cells pre-incubated with AG490 50 μM, then RSV) | RSV infection by plaque assay (PFU/ml) (RSV [2]) | IκBα phosphorylation (IκBα) | cytotoxic or anti-proliferative effects (viable cell counts) (A549 cells) | percentage of infected cells (RSV [3]) | infectivity of HIV-1 virions (HIV-1)
1 | heparin | abolished | abolished the RSV-induced activation of ERK-1/2 | did not induce ERK-1/2 phosphorylation | blocks RSV infection |  |  |  |  |  |  |  |  | 
2 | N#C/C(=C/c1ccc(O)c(O)c1)C(=O)NCc1ccccc1 [AG490] |  |  |  |  | significant reduction in the number of infected cells | decrease in RSV-induced STAT-1K phosphorylation | decreased phosphorylation of STAT-1α | failed to inhibit ERK activation | significantly (p<0.001) decreased RSV infection | decrease | no cytotoxic or anti-proliferative effects |  | 
3 | COc1cccc(-c2cc(=O)c3ccccc3o2)c1N [PD98059] |  |  |  |  | significant reduction in the number of infected cells | significantly affected the phosphorylation |  |  |  | significantly affected the phosphorylation |  | decrease in the percentage of infected cells | reduced the infectivity of HIV-1 virions
